From PMC6756013, “B591, a novel specific pan-PI3K inhibitor, preferentially targets cancer stem cells” (Oncogene, 2019)

Columns and labels:
[1] = test system: PI3K/Akt signaling in MDA-MB-231 and SUM-159PT cells; experiment: Western blot of PI3K/mTOR signaling (Supplementary Fig. S5A); conditions: 5 h
[2] = test system: MDA-MB-231 and SUM-159PT monolayer and mammosphere cells; experiment: Proliferation inhibition of monolayer versus mammosphere cells; format: cell-based, human
Method: The proliferation inhibitory activities of B591 were compared between monolayer and mammosphere cells.
(§1) Cells were treated with indicated agents for 48 h, and cells were harvested and processed for apoptosis assay using the PE-Annexin V/7-AAD Apoptosis Detection Kit. d Representative flow cytometry plots of apoptosis inducing activity of B591 (10 μM) and paclitaxel (10 nM) on monolayer and mammosphere MDA-MB-231 cells. e B591 preferentially targeted CD44^high/CD24^low cells. Cells were treated with B591 or paclitaxel for 2 days. Following a 4-day recovery period, cells were co-stained with CD44 and CD24 antibodies and subjected to FACS analysis. Representative flow cytometry plots show the effect of B591 on CD44^high/CD24^low population in MDA-MB-231 cells in vitro. f B591 decreased mammosphere forming efficiency. Primary MDA-MB-231 mammospheres were treated with B591 or paclitaxel for 48 h. Results of the secondary mammosphere-formation assay are shown. Scale bar represents 40 μm. g B591 decreased the expression of CSC markers in MDA-MB-231 cells. Cells were treated with B591 or paclitaxel for 2 days. […] They label a gated population in plots with axes CD44 and CD24. / Panel E: DMSO is the vehicle control. Its printed value is included all the same.

[3] = test system: MDA-MB-231 and SUM-159PT mammospheres; experiment: Secondary mammosphere-formation assay; format: cell-based, human; conditions: primary mammospheres treated 48 h, then passaged
Method: Cells were treated with indicated agents for 48 h, and cells were harvested and processed for apoptosis assay using the PE-Annexin V/7-AAD Apoptosis Detection Kit. d Representative flow cytometry plots of apoptosis inducing activity of B591 (10 μM) and paclitaxel (10 nM) on monolayer and mammosphere MDA-MB-231 cells. e B591 preferentially targeted CD44^high/CD24^low cells. Cells were treated with B591 or paclitaxel for 2 days. Following a 4-day recovery period, cells were co-stained with CD44 and CD24 antibodies and subjected to FACS analysis. Representative flow cytometry plots show the effect of B591 on CD44^high/CD24^low population in MDA-MB-231 cells in vitro. f B591 decreased mammosphere forming efficiency. Primary MDA-MB-231 mammospheres were treated with B591 or paclitaxel for 48 h. Results of the secondary mammosphere-formation assay are shown. Scale bar represents 40 μm. g B591 decreased the expression of CSC markers in MDA-MB-231 cells. Cells were treated with B591 or paclitaxel for 2 days. […]
In the mammosphere assay, MDA-MB-231 (Fig. 3f) and SUM-159PT (Supplementary Fig. S10D) cells were treated with B591 or paclitaxel, and the mammospheres were collected and subsequently passaged. Secondary Mammosphere-forming activity was determined, which reflects the self-renewal capability of CSCs. […]

[4] = test system: SUM-159PT cells; experiment: Mammosphere formation after paclitaxel pre-treatment; format: cell-based; conditions: 8 nM Paclitaxel or 8 nM Paclitaxel plus 5 μM B591 for 24 h
Method: (§2) Fig. 6 B591 reduces breast tumor metastasis and recurrence. a Representative images show the effect of B591 (8 mg/kg) on lung metastasis of 4T1 cells, and data from six mice were plotted. b SUM-159PT cells were respectively treated with the indicated agents (8 nM Paclitaxel, 8 nM Paclitaxel plus 5 μM B591) for 24 h, the cells were then cultured for mammospheres. Representative images were shown, and data from two independent experiments were plotted. c–f SUM-159PT xenografts (n = 7) were treated with 4 mg/kg Paclitaxel, or 10 mg/kg B591, or both for 2 weeks, then ended the treatment and waited for tumor recurrence. Tumor volume (c) and body weight (d) were measured every 2 days after treatment, and tumors were photographed (e) and weighted (f) at the end of the experiment. ^*p < 0.05, ^**p < 0.01 versus indicated groups
Based on the finding that B591 preferentially targets CSCs, we supposed that by eliminating the breast CSCs, B591 might delay breast tumor recurrence after initial treatment with chemotherapy drugs. Paclitaxel is a first-line chemotherapeutic agent used for breast cancer therapy. SUM-159PT cells were pre-treated with paclitaxel, and then the cells remaining alive were cultured for mammospheres.

[5] = test system: MDA-MB-231 and SUM-159PT monolayer and mammosphere cells; experiment: Apoptosis of monolayer versus mammosphere cells (PE-Annexin V/7-AAD); format: cell-based, human; conditions: 48 h
Method: as §1
Supplementary Fig. S10. B591 preferentially targets CSCs. […] Following a 4-day recovery period, the expression of CSC markers was analyzed with western blot analysis.

[6] = test system: SUM-159PT orthotopic xenografts; experiment: Tumor recurrence study in SUM-159PT xenografts; format: in vivo, NOD/SCID mice; conditions: paclitaxel 4 mg/kg, B591 10 mg/kg, i.p., 2 weeks, then 3 weeks recurrence
Method: as §2
In the tumor recurrence study, orthotopic xenografts were established with 5 × 10^6 SUM-159PT cells. When tumor volume reached about 50 mm^3, mice were randomly divided into four groups for treatment with vehicle, 4 mg/kg Paclitaxel, 10 mg/kg B591, and combination of 4 mg/kg Paclitaxel plus 10 mg/kg B591 (i.p.). Treatment was stopped after 2 weeks, and the tumors were allowed for recurrence for 3 weeks. Tumor volume and the body weight of mice were measured during the experiments. In the end of treatment, the mice were killed, and the tumor tissues were dissected and weighted.

[7] = test system: phosphorylation of Akt and ERK in RD cells; experiment: Immunoblotting of feedback activation of Akt and ERK; format: cell-based, human; conditions: up to 24 h, B591 10 μM
Method: Fig. 2 B591 inhibits PI3K/Akt pathway in multiple cancer cell lines. a Representative images of Akt1 redistribution in IGF-1-treated cells in the absence or presence of B591. Scale bar represents 10 μm. Arrows indicate IGF-1-mediated membrane translocation detected by the image analysis algorithm. b Inhibition of mTORC1 and mTORC2 signaling in multiple cancer cell lines, exposed for 5 h to increasing concentrations of B591. c HepG2 cells were treated with DMSO or 20 μM of B591 for 5 h. Immunofluorescence (red) intensity reflects eIF4E subcellular distribution. Cells were visualized with high content reader. Representative images are shown, and scale bar represents 50 μm. d Nuclear-to-cytoplasmic ratio of eIF4E in five cancer cell lines was determined via high content reader. e The phosphorylation of AKT and ERK was determined by immunoblotting in RD cells in the presence of 10 μM of B591 after indicated time of exposure. f Inhibition of the phosphorylation of AKT and ERK in RD cells treated with B591, PI-103 or Rapamycin for 24 h was determined by immunoblotting
Despite a significant efficacy in preclinical models, the clinical tumor response to mTORC1 inhibitors, such as rapalogs, is modest. […]

Structure (SMILES)	Effect on PI3K/Akt, mTORC1 and mTORC2 signaling [1]	Proliferation inhibitory activity, mammosphere versus monolayer cells [2]	Secondary mammosphere-forming ability [3]	Formation of mammospheres / paclitaxel-enriched CSCs [4]	Apoptosis induction, mammosphere versus monolayer populations [5]	Tumor growth and regrowth after end of treatment [6]	Phosphorylation of Akt and ERK [7]
Oc1cccc(-c2nc(N3CCOCC3)c3oc4ncccc4c3n2)c1 [PI-103]	inhibited PI3K downstream mTORC1 and mTORC2 signaling	–	–	–	–	–	–
CC(=O)O[C@H]1C(=O)[C@@]2(C)[C@H]([C@H](OC(=O)c3ccccc3)[C@]3(O)C[C@H](OC(=O)[C@H](O)[C@@H](NC(=O)c4ccccc4)c4ccccc4)C(C)=C1C3(C)C)[C@]1(OC(C)=O)CO[C@@H]1C[C@@H]2O [paclitaxel, reference compound]	did not show any effect	mammosphere cells were resistant	increased	increased the formation of mammospheres	induced less apoptosis of mammosphere populations than monolayer populations	induced initial tumor remission, but these tumors regrew quickly after termination of paclitaxel therapy	–
CO[C@H]1C[C@@H]2CC[C@@H](C)[C@@](O)(O2)C(=O)C(=O)N2CCCC[C@H]2C(=O)O[C@H]([C@H](C)C[C@@H]2CC[C@@H](O)[C@H](OC)C2)CC(=O)[C@H](C)/C=C(\C)[C@@H](O)[C@@H](OC)C(=O)[C@H](C)C[C@H](C)/C=C/C=C/C=C/1C [rapamycin, reference compound]	–	–	–	–	–	–	induced a hyper-activation of Akt and increased ERK phosphorylation
